Results published in patent US8053476B2, “Method for treating peripheral neuropathic pain” (UCB Pharma GmbH, priority 2001, dated 2011).

Legend:
[1] = tested on: rat; experiment: Chronic constriction injury (CCI, Bennett-model), mechanical allodynia (Von Frey pressure algometer); format: in vivo; settings: for Pressure to elicit foot withdrawal, Post-operative + SPM 927: ligated hind paw, ±SEM
Method: (§1) The effectiveness of SPM 927 in reducing spontaneous chronic pain, mechanical allodynia, and thermal hyperalgesia was tested using the chronic constriction injury (CCI) model of peripheral neuropathy, one of the best characterised in vivo animal models used to study chronic pain due to peripheral nerve injury. In this model, loose ligatures are placed around the sciatic nerve, which produces axonal swelling and a partial deafferentation manifested as a significant but incomplete loss of axons in the distal portion of the peripheral nerve. One of the prominent behaviours seen following sciatic nerve ligation is the appearance of hind paw guarding, thought to be an indication of an ongoing spontaneous chronic pain. Support for this idea is derived from reports of increased spinal cord neural activity, and increased spontaneous neuronal discharge in spinothalamic tract neurons and in the ventrobasal thalamus in the absence of overt peripheral stimulation. In addition to the appearance of spontaneous pain behaviours, several abnormalities in stimulus evoked pain occur as a result of CCI, including thermal hyperalgesia and mechanical allodynia. The development of these abnormal stimulus-evoked pains has also been reported as occurring in areas outside the territory of the damaged nerve, areas innervated by uninjured nerves.
Behavioural tests for thermal hyperalgesia, and mechanical allodynia were conducted to evaluate different components of neuropathic pain. Baseline data for each test was collected prior to any experimental procedure; in addition, all animals were tested for the development of chronic pain behaviours 13-25 days after CCI surgery 1 day prior to the day of vehicle (0.04 ml sterile water/10 g body weight) or drug administration and after vehicle or drug administration. […]
Mechanical sensitivity and allodynia of the ligated rat hind paw was quantified by brisk foot withdrawal in response to normally innocuous mechanical stimuli as described previously. […]

[2] = tested on: rat; experiment: Formalin test, rat: prolonged inflammatory pain (weighted pain score); format: in vivo; settings: i.p. just prior to formalin injection, 5-40 mg/kg
Method: The formalin test is a chemically-induced tonic pain model in which biphasic changes of nociceptive behaviour are assessed and spinal/supraspinal plasticity of nociception is considered as a molecular basis for neuropathic pain particularly during the second (=late) phase of the test, during which most clinically used drugs against neuropathic pain are active.
The compound was tested for anti-nociceptive properties by use of the weighted behavioural scoring method: Freely moving animals underwent observational assessment of the position of the left hind paw according to a rating score scaled 0-3 before and 10, 20, 30 and 40 min after injection of 0.05 ml of sterile 2.5% formalin under the skin on the dorsal surface of the paw.

[3] = tested on: female Wistar rats; experiment: Freund's complete adjuvant arthritis model, paw pressure test (Randall Selitto), vocalisation; format: in vivo, rat
Method: Experiments were performed in female Wistar rats weighing 80-90 g at the beginning of the experiments. Arthritis was induced by intraplantar injection of Freund's complete adjuvant (FCA, 0.1 ml) to one hindpaw. Drugs were given on day 11 after FCA injection in animals which developed systemic secondary arthritic symptoms as assessed by visual inspection. Mechanical hyperalgesia was than acutely applied and measured by means of the paw pressure test (Randall Selitto method) and supraspinal vocalisation as the biological endpoint of the nociceptive reaction. Measurements were taken at 0 min (before drug injection) and 15 min, 30 min, 60 min, and 24 h after drug injection and all data are expressed as percent of maximal possible effect (% MPE).
10 groups of 15 rats were used and received the following treatments: […]

[4] = tested on: rat; experiment: Randall-Selitto paw pressure test, carrageenan induced acute inflammation; format: in vivo; settings: for Mechanical nociceptive threshold pressure, Carrageenan + SPM 927: ±SEM, n=12
Method: Further potential anti-nociceptive efficacy of SPM 927 was assessed in a rat experimental model of acute inflammation using a modified Randall and Selitto procedure. Acute inflammation is induced by injection of s.c. carrageenan (1.0 mg in 0.1 ml saline/paw), an unspecific inflammatory agent, into the plantar surface of one hind paw of the animal. Mechanical sensitivity and nociceptive thresholds were measured using an algesimeter device that exerts a constantly increasing mechanical force (10 mm Hg/sec) on the inflammed hind paw. The mechanical nociceptive threshold is defined as the pressure (mm Hg) at which the rat vocalises or struggles or withdraws its paw. Since its original description, the Randall and Selitto mechanical paw pressure test has become a standard method for testing the efficacy of new compounds for alleviating acute inflammatory pain.
SPM 927 or vehicle (sterile water, 0.04 […]) was administered i.p. 1 hr and 45 minutes after carrageenan, meaning 15 to 20 minutes before the start of behavioural testing. As compared to the response threshold of vehicle-treated controls, an increase in the pressure required to produce a behavioural response is interpreted as antinociception.

[5] = tested on: rat; experiment: Chronic constriction injury (CCI, Bennett-model), thermal hyperalgesia (Hargreaves); format: in vivo; settings: for Withdrawal latency, Post-operative + SPM 927: ligated hind paw, radiant heat, ±SEM
Method: as §1
Behavioural tests for thermal hyperalgesia, and mechanical allodynia were conducted to evaluate different components of neuropathic pain. Baseline data for each test was collected prior to any experimental procedure; in addition, all animals were tested for the development of chronic pain behaviours 13-25 days after CCI surgery 1 day prior to the day of vehicle (0.04 ml sterile water/10 g body weight) or drug administration and after vehicle or drug administration. The sequence of the pain-related behaviour tests was (1) thermal hyperalgesia, (2) mechanical allodynia in order to minimise the influence of one test on the result of the next. The testing procedures and results are presented separately for each aspect of chronic pain. Either 0 (vehicle, 0.04 ml/10 g body weight), 5, 10, 20 or 40 mg/kg of SPM 927 (n=7-23/group) was administered i.p. 15 minutes before the first behavioural test.
(1) Thermal hyperalgesia was assessed by means of withdrawal latency in response to radiant heat applied to the subplantar surface of the ligated rat hind paw according to Hargreaves. As compared to the baseline latency (s), a significant decrease in the (postoperative) latency of foot withdrawal in response to the thermal stimulus was interpreted as indicating the presence of thermal hyperalgesia following chronic constriction injury.

COC[C@@H](NC(C)=O)C(=O)NCc1ccccc1 [SPM 927, (R)-2-acetamide-N-benzyl-3-methoxypropionamide]
Pressure to elicit foot withdrawal, Post-operative + SPM 927 ([1]; 20 mg/kg i.p.): 39.5 ± 3.62 g/mm^2 | Pressure to elicit foot withdrawal, Post-operative + SPM 927 ([1]; 40 mg/kg i.p.): 42.9 ± 5.47 g/mm^2 | Effect on mechanical allodynia induced by unilateral nerve ligation ([1]; i.p., 5-40 mg/kg): dose dependently reduced the intensity of mechanical allodynia | Effect on formalin-induced nociceptive behaviour [2]: dose dependent reduction of the formalin-induced tonic inflammatory nociceptive behaviour | Anti-inflammatory effect in FCA arthritis ([3]; 30 mg/kg early (with FCA)): no anti-inflammatory effects | Anti-nociceptive effect in FCA arthritis ([3]; 5-40 mg/kg acute, significant at 30 and 40 mg/kg): dose-dependent anti-nociceptive | % MPE ([3]; FCA rats, 5 mg/kg acute (day 11), 15 min): −5 % MPE | % MPE ([3]; FCA rats, 5 mg/kg acute (day 11), 30 min): −5 % MPE | % MPE ([3]; FCA rats, 5 mg/kg acute (day 11), 60 min): −12 % MPE | % MPE ([3]; FCA rats, 5 mg/kg acute (day 11), 24 h): −14 % MPE | % MPE ([3]; FCA rats, 10 mg/kg acute (day 11), 15 min): +7 % MPE | % MPE ([3]; FCA rats, 10 mg/kg acute (day 11), 30 min): −2 % MPE | % MPE ([3]; FCA rats, 10 mg/kg acute (day 11), 60 min): 0 % MPE | % MPE ([3]; FCA rats, 10 mg/kg acute (day 11), 24 h): −5 % MPE | % MPE ([3]; FCA rats, 20 mg/kg acute (day 11), 15 min): +1 % MPE | % MPE ([3]; FCA rats, 20 mg/kg acute (day 11), 30 min): −20 % MPE | % MPE ([3]; FCA rats, 20 mg/kg acute (day 11), 60 min): −9 % MPE | % MPE ([3]; FCA rats, 20 mg/kg acute (day 11), 24 h): −20 % MPE | % MPE ([3]; FCA rats, 30 mg/kg acute (day 11), 15 min): +58 % MPE | % MPE ([3]; FCA rats, 30 mg/kg acute (day 11), 30 min): +33 % MPE | % MPE ([3]; FCA rats, 30 mg/kg acute (day 11), 60 min): +16 % MPE | % MPE ([3]; FCA rats, 30 mg/kg acute (day 11), 24 h): −8 % MPE | % MPE ([3]; FCA rats, 30 mg/kg early (with FCA), anti-inflammatory effects group, 15 min): −14 % MPE | % MPE ([3]; FCA rats, 30 mg/kg early (with FCA), anti-inflammatory effects group, 30 min): −7 % MPE | % MPE ([3]; FCA rats, 30 mg/kg early (with FCA), anti-inflammatory effects group, 60 min): −3 % MPE | % MPE ([3]; FCA rats, 30 mg/kg early (with FCA), anti-inflammatory effects group, 24 h): −11 % MPE | % MPE ([3]; FCA rats, 40 mg/kg acute (day 11), 15 min): +100 % MPE | % MPE ([3]; FCA rats, 40 mg/kg acute (day 11), 30 min): +100 % MPE | % MPE ([3]; FCA rats, 40 mg/kg acute (day 11), 60 min): +14 % MPE | % MPE ([3]; FCA rats, 40 mg/kg acute (day 11), 24 h): −7 % MPE | Dose at which anti-nociceptive effects started ([3]; FCA rats, most prominent during first 30 min): 30 mg/kg | Mechanical nociceptive threshold pressure, Carrageenan + SPM 927 ([4]; 20 mg/kg i.p. 1 hr 45 min after carrageenan): 164.8 ± 13.5 mm Hg | Mechanical nociceptive threshold pressure, Carrageenan + SPM 927 ([4]; 40 mg/kg i.p. 1 hr 45 min after carrageenan): 232.7 ± 22.0 mm Hg | Effect on carrageenan induced mechanical hyperalgesia ([4]; 20 and 40 mg/kg i.p.): markedly reduced the mechanical hyperalgesia induced by carrageenan | Withdrawal latency, Post-operative + SPM 927 ([5]; 5 mg/kg i.p.): 9.1 ± 0.97 s | Withdrawal latency, Post-operative + SPM 927 ([5]; 10 mg/kg i.p.): 8.0 ± 0.58 s | Dose at which maximum effect on thermal hyperalgesia was seen ([5]; i.p.): 20 mg/kg | Effect on CCI-induced thermal hyperalgesia ([5]; i.p., significant only at 20 and 40 mg/kg): dose dependently reduced chronic constriction injury-induced thermal hyperalgesia

CN1CC[C@]23c4c5ccc(O)c4O[C@H]2[C@@H](O)C=C[C@H]3[C@H]1C5 [morphine, reference compound]
Antinociceptive effect of positive control ([3]; 10 mg/kg, arthritic and normal animals): clear antinociceptive effects in arthritic and normal animals | % MPE ([3]; FCA rats (disease condition), 10 mg/kg, 15 min): +100 % MPE | % MPE ([3]; FCA rats (disease condition), 10 mg/kg, 30 min): +100 % MPE | % MPE ([3]; FCA rats (disease condition), 10 mg/kg, 60 min): +100 % MPE | % MPE ([3]; FCA rats (disease condition), 10 mg/kg, 24 h): −7 % MPE | % MPE ([3]; no FCA (normal condition), 10 mg/kg, 15 min): +100 % MPE | % MPE ([3]; no FCA (normal condition), 10 mg/kg, 30 min): +100 % MPE | % MPE ([3]; no FCA (normal condition), 10 mg/kg, 60 min): +100 % MPE | % MPE ([3]; no FCA (normal condition), 10 mg/kg, 24 h): +2 % MPE
